Assay results as given in patent publication US12447167B2, “GM-CSF-producing t-cell control agent and Th1/Th2 immune balance regulator” (National Center of Neurology and Psychiatry, priority 2014, dated 2025).

Test system: GM-CSF-producing CD8-positive T-cells
Experiment: GM-CSF-producing CD8-positive T-cells in PBMCs of normal subjects after single oral dose (FACS)
Format: in vivo, human
Protocol: A single dose of compound 31, which is a synthetic glycolipid of the present invention, described in the first aspect, i.e., (2S,3S,4R)-1-O-(α-D-galactosyl)-2-(N-tetracosanoylamino)-1,3,4-nonanetriol represented by the following formula (III), was orally administered to each of subjects of 4 cohorts (A, B, C, and D cohorts) each consisting of 3 normal subjects shown in Table 1 above after obtainment of informed consent.
The dose was set to 0.3 mg per person for A cohort, 1 mg per person for B cohort, 3 mg per person for C cohort, and 10 mg per person for D cohort.
Subsequently, T-cell subfractions were prepared from the peripheral blood of each subject by using the density gradient centrifugation method. First, a total of 20 mL of blood was collected from the vein of each subject 24 hours (1st day), 48 hours (2nd day), 72 hours (3rd day), and 168 hours (7th day) after the administration of compound 31 by using two 10-mL heparin sodium-containing vacuum blood collection tubes. For a control, 20 mL of blood was similarly collected from the vein of each subject one day before the administration of compound 31.
Next, 4 mL of Ficoll-Paque Plus (GE Healthcare Biosciences Corp.) was placed in each of four 15-mL conical tubes, and 10 mL of blood diluted twice with phosphate buffered saline (PBS) was gently layered thereon. Then, density gradient centrifugation was performed by centrifugation at 1800 rpm at ordinary temperature for 30 minutes. After the centrifugation, a supernatant containing plasma and platelet was discarded, and lymphocytes present at the boundary layer between the supernatant layer and the Ficoll-Paque Plus layer were recovered into a fresh 50-mL conical tube. The 50-mL conical tube was filled by adding PBS thereto, followed by centrifugation at 1800 rpm at ordinary temperature for 5 minutes. […] After a supernatant was removed by suction again, a single cell suspension was prepared by adding 1 mL of AIM-V medium (Life Technologies Corp.), and then, the number of cells was measured with a counting chamber. […]

For CCCCCCCCCCCCCCCCCCCCCCCC(=O)NC(COC1OC(CO)C(O)C(O)C1O)[C@H](O)C(O)CCCCC (stereo in doubt) [compound 31, (2S,3S,4R)-1-O-(α-D-galactosyl)-2-(N-tetracosanoylamino)-1,3,4-nonanetriol], the “suppressive effects on CD8-positive T-cells” value (A cohort (0.3 mg), 7 days after administration) was “strengthened”, the “growth of CD8-positive T-cells” value (C cohort (3 mg), 1 day after administration) was “transiently promoted” and the “proportion of CD8-positive T-cells (GM-CSF-producing) in PBMCs” value (single oral dose, all cohorts, after administration vs day-1) was “decreased”.
